From US5196418A, “Hemicholinium lipids and use thereof” (Board of Supervisors, Louisiana State University …, priority 1992, dated 1993) come the findings set out here.

One experiment concerns cell-cell aggregation. Put plainly: Inhibition of cell-cell aggregation (method of Fritz et al.). In kind it is cell-based. From the text: Cell-cell aggregation studies by the method of Fritz et al., J. CeII.
Experiment [1] deals with T1, CPT-II (Bos taurus, UniProt Q2KJB7).
T1 construct: CPT-II was prepared from beef liver; from tissue; host or cells: beef liver
T1 sequence (Q2KJB7 26-658): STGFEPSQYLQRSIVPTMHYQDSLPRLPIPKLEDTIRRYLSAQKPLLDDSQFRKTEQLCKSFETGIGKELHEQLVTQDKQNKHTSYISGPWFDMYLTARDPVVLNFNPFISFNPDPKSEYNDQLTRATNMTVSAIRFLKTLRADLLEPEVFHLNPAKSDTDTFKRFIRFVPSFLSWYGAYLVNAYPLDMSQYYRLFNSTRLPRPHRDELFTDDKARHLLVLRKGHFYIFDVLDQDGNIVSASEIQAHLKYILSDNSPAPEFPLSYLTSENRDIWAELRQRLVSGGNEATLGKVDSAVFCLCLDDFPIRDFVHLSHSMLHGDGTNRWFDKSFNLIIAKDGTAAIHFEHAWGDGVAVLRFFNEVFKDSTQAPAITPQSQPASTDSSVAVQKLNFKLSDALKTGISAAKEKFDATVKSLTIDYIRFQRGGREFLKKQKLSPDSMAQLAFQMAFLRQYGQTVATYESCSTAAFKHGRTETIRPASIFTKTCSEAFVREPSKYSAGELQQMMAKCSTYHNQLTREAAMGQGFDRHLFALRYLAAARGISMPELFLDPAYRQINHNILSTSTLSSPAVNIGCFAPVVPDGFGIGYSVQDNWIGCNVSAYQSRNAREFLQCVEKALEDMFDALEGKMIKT
Put plainly: CPT inhibition (spectrophotometric assay, CPT-II prepared from beef liver). The format is biochemical. The note with it: CPT-II from beef liver, 10 μM decanoyl-CoA, L-carnitine 1 mM and 5 mM, pH 7.4, 30° C. Here is the method: (§1) Preparation: CPT-II was prepared from beef liver using the methods of P. R. H. Clarke and L. L. Bieber (1981) J. Biol. Chem., 256. 9861-9868.
(§2) In final volume of 1 ml, 20 mm KPO4^-, pH 7.4 at 30° C., 125 μM aldrithiol [4,4-dithio(bis)pyridine], 10 μM decanoyl-CoA, 10 μl enzyme (1.25 μg/ml) and inhibitor were preincubated at 30° C. for 1 min. and the reaction was initiated with L-carnitine. The absorbance change at 324 nm, followed in a spectrophotometer, was linear with time. L-carnitine conc. were 1 mM and 5 mM. H15C conc. ranged from 1.25 μM-12.5 μM (6values).

Experiment [2] addresses CPT-II. The experiment is described as above. The note with it: Ki 2 μM versus 10.4 μM. In kind it is biochemical. How it is done:
as §1, §2

Each structure is given as a SMILES string.

Broadly, the Ki is the equilibrium dissociation constant of an inhibitor or competing ligand from its target.

`CCCCCCCCCCCCC1(O)C[N+](C)(C)CCO1` (racemic) [Example 7, 2-Dodecyl-2-hydroxy-4,4-dimethylmorpholinium Bromide] gave a Ki with cell-cell aggregation of 12000 nM.
As to `CCCCCCCCCCCCCCCC1(O)C[N+](C)(C)CCO1.[Br-]` (stereo not shown) [Example 4, 2Hydroxy-4,4-dimethyl-2-pentadecylmorpholinium Bromide], the Ki was found to be 2000 nM on CPT-II [1] and 400 nM in the experiment with cell-cell aggregation. In addition, at CPT-II [2], the “binding strength relative to palmitoylcholine (from Ki against CPT)” value was “five-fold stronger binding”.
The compound `CCCCCCCCCCCCCCCC(=O)C[N+](C)(C)CCCO` [Example 9, N-(3-Hydroxypropyl)-N,N-dimethyl-N-(2-oxoheptadecyl)ammonium Bromide] showed an inhibition constant (Ki) in the experiment with cell-cell aggregation of 750 nM.
The same measure, in the same setting: the figure for `CCCCCCCCCCCCCCCCC1(O)C[N+](C)(C)CCO1` (racemic) [Example 3, 2-Hexadecyl-2-hydroxy-4,4-dimethylmorpholinium Bromide] is 400 nM.
In the experiment on cell-cell aggregation, `CCCCCCCCCCCCCCC1(O)C[N+](C)(C)CCO1` (racemic) [Example 5, 2-Hydroxy-4,4-dimethyl-2,-tetradecylmorpholinium Bromide] registered a Ki of 1500 nM.
